Results: publication PMC12177571, “Glycosidase-activated prodrugs of a cytotoxic iron chelator for targeted cancer therapy” (RSC Medicinal Chemistry, 2025)

Columns and labels:
OvCar-3 cells = test: MTT cell viability assay, OvCar-3 cells; format: cell-based; conditions: Homo sapiens, 72 h incubation, mean and SD of three independent experiments, read-out: IC50 against OvCar-3
Protocol: (§1) Next, the cytotoxicity of the prodrugs was assessed in the human lung cancer (A549) and human ovarian cancer (OvCar-3) cell lines: overexpressing β-glucosidase, and, overexpressing both β-glucosidase and β-galactosidase, respectively.[40,41] For this, a standard MTT assay was employed to generate the proliferation profiles (cf. ESI ^† Fig. S1–S5) and allowed us to calculate the IC50 values for each compound. GM5756 fibroblast cells were included as non-cancerous control.
(§2) Cell culture. Ovcar-3 cells were maintained in RPMI-1640 medium (Invitrogen), A549 cells were maintained in high glucose (4.5 g/L) Dulbecco’s Modified Eagle’s medium (Invitrogen. Alle employed culture media were supplemented with 10% fetal bovine serum (Gibco), 2% penicillin/streptomycin (Sigma Aldrich), 1%GlutaMAX™-I (100x, Gibco), and 1% sodium pyruvate (100 mM, Gibco).
(§3) Cells were kept under a humidified atmosphere of 10% CO2 and 90% air at 37°C. Cells were split when they reached 90% confluency. All employed cell lines were sourced from the German Collection of Microorganisms and Cell Cultures (Leibnitz Institute, DSMZ).
(§4) Cell viability studies and MTT assays. Cells were harvested and plated on a 96-well plate in 100 µL growth medium at a density of 1500 cells per well. The cells were left to grow for 24 h at 37°C under a humidified atmosphere with 10% CO2. The next day, 100 µL of growth medium containing appropriate concentrations of the investigated compound were added to each well. As a control, the first row of wells was treated with 100 µL medium containing only the vehicle (1% DMSO); all wells contained a final concentration of 0.5% DMSO for the duration of the treatment. After incubation with the compound for 72 h, 50 µL of MTT solution (2.5 mg/mL 3-(4,5-dimethylthiazol-2-yl)-2,5-diphenyltetrazolium bromide dye in PBS buffer) was added to each well. After an additional incubation for 2 h, the supernatant was aspired off and 200 µL of DMSO was added to each well to solubilize the precipitated formazan dye. The produced formazan dye was quantified by measuring the optical density of the solution at 550 nm with a Tecan Infinite M Nano+ plate reader. A baseline correction was performed by subtracting a reference absorbance at 620 nm for each well. From the mean of the corrected absorbances for each set of equivalent wells, a dose-response curve was produced, which was then normalized to the wells containing untreated cells to allow for plate-to-plate comparison. The resulting dose-response curves were subjected to non-linear regression analysis performed in Microsoft Excel (version 16.64) to determine IC50 via the Hill-Langmuir model. Data is shown as the mean of three replicate experiments and error bars represent the standard deviation at each datum point.

A549 cells = test: MTT cell viability assay, A549 cells; format: cell-based; conditions: Homo sapiens, 72 h incubation, mean and SD of three independent experiments, read-out: IC50 against A549
Protocol: as §1, §2, §3, §4

β-galactosidase = target: T1, β-galactosidase (Escherichia coli, UniProt P00722); test: AIE fluorescence study of release of 1 with β-galactosidase; format: biochemical, e.coli; conditions: free chelator 1 as reference, 20 μM, enzyme not specified
T1 construct: purchased Roche; host or cells: E. coli overproducer
Protocol: The AIE fluorescence properties of 1 were used as a means of supporting the above conclusion. The emission of all glycosylated prodrugs is suppressed. Thus, solutions of each prodrug were prepared in water, and three enzyme units of β-galactosidase or β-glucosidase, as appropriate, were added to the prodrugs. Each mixture was then analysed by fluorescence spectroscopy after 24 h of incubation. […] This finding is consistent with a lack of enzymatic activation.
Fig. 4 Relative emission intensity at 480 nm (*for 3b at 420 nm) of evaluated compounds at 20 μM before and after incubation with 3 U of the appropriate enzyme. TEXT PRINTED IN THE PICTURE: 1: Relative Emission 480 nm: 100% (Before incubation); Relative Emission 480 nm: 100% (After 24 h incubation) | 2a: Relative Emission 480 nm: 0% (Before incubation); Relative Emission 480 nm: 0% (After 24 h incubation) | 2b: Relative Emission 480 nm: 0% (Before incubation); Relative Emission 480 nm: 1% (After 24 h incubation) | 3a: Relative Emission 480 nm: 1% (Before incubation); Relative Emission 480 nm: 33% (After 24 h incubation) | 3b*: Relative Emission 480 nm: 1% (Before incubation); Relative Emission 480 nm: 11% (After 24 h incubation) […]
Figure S25: Fluorescence spectra for excitation (blue) and emission (green) of 1 at a concentration of 20 μM in water.
Figure S26: Fluorescence spectra for excitation (blue) and emission (green) of 2a at a concentration of 20 μM in water before (left) and after (right) incubation with 3 units of b-galactosidase for 24 h. […]
Figure S28: Fluorescence spectra for excitation (blue) and emission (green) of 3a at a concentration of 20 μM in water before (left) and after (right) incubation with 3 units of β-galactosidase for 24 h. […]

[1] = Fe(III) binding study by UV-vis spectroscopy; conditions: 30 μM compound, excess FeCl3 (50 μM), methanol
Protocol: With the prodrugs in hand, binding studies were carried out using UV-vis spectroscopy; this was done to confirm the Fe(III) binding ability of all new compounds. […] To evaluate whether 2a, 2b, 3a, and 3b were chelating Fe(III), each prodrug was similarly dissolved in a solution containing excess FeCl3.
Fig. 2 UV-vis absorption spectra for prodrugs 2a/b and 3a/b as well as 1 at a concentration of 30 μM with an excess of FeCl3 as Fe(III) source (50 μM) in methanol.
UV-vis spectra were recorded in methanol containing the indicated ligand or prodrug at a concentration of 30 µM and as appropriate Fe(III) at a concentration of 50 µM. A stock solution of FeCl3 in DMSO was used as source of Fe(III) and ligands were added from a […] stock solution in DMSO. All samples contained a final concentration of <0.2% DMSO.
Figure S7: UV-vis absorption spectra of 1, Fe(III), and 1 + Fe(III). The graph for 1 + Fe(III) (Numerically) was constructed by numerically adding the respective signals of Fe(III) and 1 to show what graph could be expected if the two species were in the same solution without interacting.
Figure S8: UV-vis absorption spectra of 2a, Fe(III), and 2a + Fe(III). The graph for 2a + Fe(III) (Numerically) was constructed by numerically adding the respective signals of Fe(III) and 2a to show what graph could be expected if the two species were in the same solution without interacting. […]

GM5756 fibroblast cells = test: MTT cell viability assay, GM5756 fibroblast cells (non-cancerous control); format: cell-based; conditions: 72 h incubation, mean and SD of three independent experiments, read-out: IC50 against GM5756
Protocol: as §1, §2, §3, §4

T1 sequence (P00722 2-1024): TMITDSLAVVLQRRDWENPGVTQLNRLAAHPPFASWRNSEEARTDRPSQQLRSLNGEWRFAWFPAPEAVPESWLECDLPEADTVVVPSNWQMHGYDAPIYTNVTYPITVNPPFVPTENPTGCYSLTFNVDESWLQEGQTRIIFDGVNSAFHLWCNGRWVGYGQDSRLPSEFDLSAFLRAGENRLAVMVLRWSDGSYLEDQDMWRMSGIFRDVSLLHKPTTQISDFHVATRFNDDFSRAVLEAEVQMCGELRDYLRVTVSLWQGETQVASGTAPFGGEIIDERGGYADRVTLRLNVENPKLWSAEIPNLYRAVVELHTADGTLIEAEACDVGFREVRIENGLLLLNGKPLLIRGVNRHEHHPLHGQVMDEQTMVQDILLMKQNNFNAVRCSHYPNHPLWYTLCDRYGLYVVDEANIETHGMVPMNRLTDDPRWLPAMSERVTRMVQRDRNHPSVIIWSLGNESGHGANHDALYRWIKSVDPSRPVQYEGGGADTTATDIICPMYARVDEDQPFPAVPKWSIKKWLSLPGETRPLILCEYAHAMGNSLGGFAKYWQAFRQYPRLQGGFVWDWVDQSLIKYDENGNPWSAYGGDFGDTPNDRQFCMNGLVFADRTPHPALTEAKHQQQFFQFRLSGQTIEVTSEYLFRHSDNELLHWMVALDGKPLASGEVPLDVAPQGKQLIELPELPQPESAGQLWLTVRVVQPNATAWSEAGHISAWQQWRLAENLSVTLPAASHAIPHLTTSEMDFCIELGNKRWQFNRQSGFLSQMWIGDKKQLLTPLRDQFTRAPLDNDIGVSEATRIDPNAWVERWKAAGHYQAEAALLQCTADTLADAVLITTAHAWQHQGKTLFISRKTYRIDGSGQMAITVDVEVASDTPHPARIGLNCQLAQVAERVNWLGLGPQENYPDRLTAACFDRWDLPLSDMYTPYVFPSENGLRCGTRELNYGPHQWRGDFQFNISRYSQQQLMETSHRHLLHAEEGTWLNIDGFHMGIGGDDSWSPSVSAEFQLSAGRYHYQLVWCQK

Oc1ccccc1-c1nc(-c2ccccc2O)n(-c2ccccc2)n1 [compound 1, reference compound]
IC50 (OvCar-3 cells): 3.9 ± 1.6 µM | IC50 (A549 cells): 3.1 ± 0.4 µM | Relative emission intensity at 480 nm (β-galactosidase; after 24 h incubation): 100% | Relative emission intensity at 480 nm (β-galactosidase; before incubation): 100% | Absorbance at 510 nm (Fe(III) chelation band) [1]: characteristic absorption band at 510 nm | IC50 (GM5756 fibroblast cells): 2.7 ± 0.1 µM
